For experiment [1], the target named is Epidermal growth factor receptor (Homo sapiens, UniProt P00533). The experiment is described as follows: Inhibition of EGFR (unknown origin).
Experiment [2] deals with Cytoplasmic tyrosine-protein kinase BMX (Homo sapiens, UniProt P51813). Kind of experiment: Inhibition of BMX (unknown origin).
In experiment [3] the target is Receptor tyrosine-protein kinase erbB-2 (Homo sapiens, UniProt P04626). The experiment is described as follows: Inhibition of ERB-B2 (unknown origin).
The target in experiment [4] is Tyrosine-protein kinase TXK (Homo sapiens, UniProt P42681). Kind of experiment: Inhibition of TXK (unknown origin).
Experiment [5] has as its target Tyrosine-protein kinase Tec (Homo sapiens, UniProt P42680). Kind of experiment: Inhibition of TEC (unknown origin).
The target in experiment [6] is T1, Tyrosine-protein kinase JAK3 (Homo sapiens, UniProt P52333).
T1 sequence (P52333 whole entry): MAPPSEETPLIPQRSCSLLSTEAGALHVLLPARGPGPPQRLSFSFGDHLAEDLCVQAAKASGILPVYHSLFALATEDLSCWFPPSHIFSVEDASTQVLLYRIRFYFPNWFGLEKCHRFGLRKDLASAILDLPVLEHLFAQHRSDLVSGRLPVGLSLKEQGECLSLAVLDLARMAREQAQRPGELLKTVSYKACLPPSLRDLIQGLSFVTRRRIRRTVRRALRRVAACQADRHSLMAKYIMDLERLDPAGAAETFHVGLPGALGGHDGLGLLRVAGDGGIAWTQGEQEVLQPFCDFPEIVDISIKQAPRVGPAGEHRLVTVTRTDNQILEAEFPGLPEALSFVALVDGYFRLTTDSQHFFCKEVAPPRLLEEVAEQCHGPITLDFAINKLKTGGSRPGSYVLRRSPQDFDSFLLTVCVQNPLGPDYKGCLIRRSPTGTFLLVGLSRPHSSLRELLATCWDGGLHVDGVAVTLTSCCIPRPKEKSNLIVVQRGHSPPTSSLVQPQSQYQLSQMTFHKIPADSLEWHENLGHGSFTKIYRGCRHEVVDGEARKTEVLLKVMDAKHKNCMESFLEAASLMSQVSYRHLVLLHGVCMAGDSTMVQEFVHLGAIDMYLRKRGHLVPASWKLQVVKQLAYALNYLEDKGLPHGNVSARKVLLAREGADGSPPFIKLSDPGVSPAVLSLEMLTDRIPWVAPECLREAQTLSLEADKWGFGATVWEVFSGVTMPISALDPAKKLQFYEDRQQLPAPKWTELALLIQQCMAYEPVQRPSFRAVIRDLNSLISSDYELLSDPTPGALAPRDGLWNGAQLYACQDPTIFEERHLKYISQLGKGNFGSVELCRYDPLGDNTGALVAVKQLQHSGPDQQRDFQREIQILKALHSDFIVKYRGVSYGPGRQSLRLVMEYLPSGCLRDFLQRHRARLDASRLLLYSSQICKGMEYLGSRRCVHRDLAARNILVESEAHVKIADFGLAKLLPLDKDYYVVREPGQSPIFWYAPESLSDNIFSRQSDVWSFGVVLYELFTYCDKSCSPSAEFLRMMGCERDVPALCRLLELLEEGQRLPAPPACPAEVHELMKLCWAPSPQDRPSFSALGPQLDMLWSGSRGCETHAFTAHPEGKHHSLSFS
The experiment is described as follows: Inhibition of JAK3 (unknown origin) by trFRET binding assay.

Experiment [7] addresses Tyrosine-protein kinase Fyn (Homo sapiens, UniProt P06241). Kind of experiment: Inhibition of FYN (unknown origin) by trFRET binding assay.
In experiment [8] the target is Vascular endothelial growth factor receptor 1 (Homo sapiens, UniProt P17948). The experiment is described as follows: Inhibition of FLT1 (unknown origin) by trFRET binding assay.
The target of experiment [9] is Tyrosine-protein kinase BTK (Homo sapiens, UniProt Q06187). Kind of experiment: Inhibition of BTK (unknown origin) by trFRET binding assay.
In experiment [10] the target is Serine/threonine-protein kinase 16 (Homo sapiens, UniProt O75716). Kind of experiment: Inhibition of STK16 (unknown origin) by trFRET binding assay.
Experiment [11] addresses Proto-oncogene tyrosine-protein kinase Src (Homo sapiens, UniProt P12931). Kind of experiment: Inhibition of SRC (unknown origin) by trFRET binding assay.
For experiment [12], the target named is T1, Tyrosine-protein kinase JAK3.
Description: Inhibition of JAK3 (unknown origin) in presence of ATP by radiometric assay
The target of experiment [13] is Vascular endothelial growth factor receptor 2 (Homo sapiens, UniProt P35968). The experiment is described as follows: Inhibition of KDR (unknown origin) by trFRET binding assay.
In experiment [14] the target is Mitogen-activated protein kinase kinase kinase kinase 2 (Homo sapiens, UniProt Q12851). The experiment is described as follows: Inhibition of MAP4K2 (unknown origin) by trFRET binding assay.
Experiment [15] addresses Leukocyte tyrosine kinase receptor (Homo sapiens, UniProt P29376). The experiment is described as follows: Inhibition of LTK (unknown origin) by trFRET binding assay.
For experiment [16], the target named is Fibroblast growth factor receptor 1 (Homo sapiens, UniProt P11362). Kind of experiment: Inhibition of FGFR1 (unknown origin) by trFRET binding assay.
In experiment [17] the target is Proto-oncogene tyrosine-protein kinase receptor Ret (Homo sapiens, UniProt P07949). Kind of experiment: Inhibition of RET (unknown origin) by trFRET binding assay.
Experiment [18] addresses G protein-coupled receptor kinase 5 (Homo sapiens, UniProt P34947). Kind of experiment: Inhibition of GRK5 (unknown origin) by trFRET binding assay.
The target of experiment [19] is Serine/threonine-protein kinase 33 (Homo sapiens, UniProt Q9BYT3). Kind of experiment: Inhibition of STK33 (unknown origin) by trFRET binding assay.

Three molecules from ChEMBL document CHEMBL5653628, “Selective JAK3 Inhibitors with a Covalent Reversible Binding Mode Targeting a New Induced Fit Binding Pocket” (Cell Chem Biol, 2016) can be followed below.

Tyrosine-protein kinase BTK, sequence (Q06187 whole entry): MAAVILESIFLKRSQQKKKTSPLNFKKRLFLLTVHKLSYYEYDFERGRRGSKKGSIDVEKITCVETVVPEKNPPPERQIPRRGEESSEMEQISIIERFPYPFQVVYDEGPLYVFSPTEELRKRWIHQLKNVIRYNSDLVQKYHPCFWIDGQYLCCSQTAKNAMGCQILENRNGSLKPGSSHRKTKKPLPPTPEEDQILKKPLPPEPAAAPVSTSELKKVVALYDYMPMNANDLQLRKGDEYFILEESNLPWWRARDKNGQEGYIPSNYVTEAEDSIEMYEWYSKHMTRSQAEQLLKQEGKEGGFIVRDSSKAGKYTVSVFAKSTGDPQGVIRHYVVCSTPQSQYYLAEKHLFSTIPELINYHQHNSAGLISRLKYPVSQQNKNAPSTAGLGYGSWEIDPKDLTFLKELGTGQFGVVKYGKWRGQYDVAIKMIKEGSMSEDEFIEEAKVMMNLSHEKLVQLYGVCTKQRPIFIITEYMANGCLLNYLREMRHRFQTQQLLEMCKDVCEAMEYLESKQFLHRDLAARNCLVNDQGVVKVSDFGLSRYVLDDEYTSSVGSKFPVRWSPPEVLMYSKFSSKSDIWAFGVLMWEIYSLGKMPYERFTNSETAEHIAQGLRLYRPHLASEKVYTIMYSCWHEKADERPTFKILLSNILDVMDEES
Tyrosine-protein kinase TXK, sequence (P42681 whole entry): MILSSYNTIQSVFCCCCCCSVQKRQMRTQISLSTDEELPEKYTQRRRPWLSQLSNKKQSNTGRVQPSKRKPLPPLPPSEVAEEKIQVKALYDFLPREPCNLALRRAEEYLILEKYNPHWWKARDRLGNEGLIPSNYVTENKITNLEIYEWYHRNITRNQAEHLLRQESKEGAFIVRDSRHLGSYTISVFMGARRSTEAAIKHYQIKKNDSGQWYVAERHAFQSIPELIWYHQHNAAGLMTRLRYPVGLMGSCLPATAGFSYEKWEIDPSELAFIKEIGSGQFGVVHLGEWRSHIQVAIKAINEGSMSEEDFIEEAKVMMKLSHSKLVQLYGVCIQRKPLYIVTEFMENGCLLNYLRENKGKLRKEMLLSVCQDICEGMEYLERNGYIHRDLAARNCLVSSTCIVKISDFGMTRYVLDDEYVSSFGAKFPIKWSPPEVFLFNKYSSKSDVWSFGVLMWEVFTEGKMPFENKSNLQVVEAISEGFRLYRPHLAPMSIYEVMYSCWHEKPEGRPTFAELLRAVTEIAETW
Tyrosine-protein kinase Fyn, sequence (P06241 whole entry): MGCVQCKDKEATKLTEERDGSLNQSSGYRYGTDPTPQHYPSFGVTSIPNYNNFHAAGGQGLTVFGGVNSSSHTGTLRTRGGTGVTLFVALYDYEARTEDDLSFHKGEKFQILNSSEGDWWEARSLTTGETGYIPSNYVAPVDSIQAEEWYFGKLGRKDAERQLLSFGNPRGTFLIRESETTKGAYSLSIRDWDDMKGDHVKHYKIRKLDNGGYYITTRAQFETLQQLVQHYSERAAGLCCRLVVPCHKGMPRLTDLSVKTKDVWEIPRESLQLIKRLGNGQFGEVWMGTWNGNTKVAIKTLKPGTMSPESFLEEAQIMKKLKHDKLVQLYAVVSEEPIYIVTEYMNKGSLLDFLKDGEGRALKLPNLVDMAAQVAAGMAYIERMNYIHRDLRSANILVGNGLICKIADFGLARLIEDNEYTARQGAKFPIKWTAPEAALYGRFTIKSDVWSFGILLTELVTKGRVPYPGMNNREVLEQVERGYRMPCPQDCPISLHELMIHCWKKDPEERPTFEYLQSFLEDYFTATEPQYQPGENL
Tyrosine-protein kinase Tec, sequence (P42680 whole entry): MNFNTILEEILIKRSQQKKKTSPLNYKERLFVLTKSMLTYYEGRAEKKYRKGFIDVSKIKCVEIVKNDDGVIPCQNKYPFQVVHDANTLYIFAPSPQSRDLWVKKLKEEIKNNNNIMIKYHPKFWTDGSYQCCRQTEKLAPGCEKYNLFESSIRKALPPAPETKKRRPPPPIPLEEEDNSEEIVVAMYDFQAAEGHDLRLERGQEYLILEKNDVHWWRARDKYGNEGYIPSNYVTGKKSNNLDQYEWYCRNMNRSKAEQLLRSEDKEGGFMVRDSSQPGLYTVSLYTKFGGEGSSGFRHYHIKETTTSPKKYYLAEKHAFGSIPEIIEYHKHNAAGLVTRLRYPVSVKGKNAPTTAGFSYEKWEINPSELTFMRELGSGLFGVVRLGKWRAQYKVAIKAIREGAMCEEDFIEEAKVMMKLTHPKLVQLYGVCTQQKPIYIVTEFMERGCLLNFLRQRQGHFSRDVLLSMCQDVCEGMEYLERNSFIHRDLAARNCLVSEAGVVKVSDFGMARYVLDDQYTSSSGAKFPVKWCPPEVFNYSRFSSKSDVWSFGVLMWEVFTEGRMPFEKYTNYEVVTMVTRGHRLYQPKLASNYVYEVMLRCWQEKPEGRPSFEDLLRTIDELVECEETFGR
Serine/threonine-protein kinase 33, sequence (Q9BYT3 whole entry): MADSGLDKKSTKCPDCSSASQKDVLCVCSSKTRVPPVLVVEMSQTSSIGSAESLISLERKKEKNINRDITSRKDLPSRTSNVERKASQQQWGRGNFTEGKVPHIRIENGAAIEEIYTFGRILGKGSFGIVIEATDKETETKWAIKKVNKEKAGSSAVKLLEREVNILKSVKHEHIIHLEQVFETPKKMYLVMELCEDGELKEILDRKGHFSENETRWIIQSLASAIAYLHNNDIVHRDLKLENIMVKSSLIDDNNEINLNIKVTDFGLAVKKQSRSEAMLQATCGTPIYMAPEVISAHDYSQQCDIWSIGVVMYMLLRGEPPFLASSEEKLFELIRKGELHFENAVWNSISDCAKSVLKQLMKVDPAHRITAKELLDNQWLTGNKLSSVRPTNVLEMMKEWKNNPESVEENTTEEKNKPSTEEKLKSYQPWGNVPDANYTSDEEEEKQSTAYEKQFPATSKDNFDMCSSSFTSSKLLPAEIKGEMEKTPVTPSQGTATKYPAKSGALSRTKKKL
Vascular endothelial growth factor receptor 2, sequence (P35968 whole entry): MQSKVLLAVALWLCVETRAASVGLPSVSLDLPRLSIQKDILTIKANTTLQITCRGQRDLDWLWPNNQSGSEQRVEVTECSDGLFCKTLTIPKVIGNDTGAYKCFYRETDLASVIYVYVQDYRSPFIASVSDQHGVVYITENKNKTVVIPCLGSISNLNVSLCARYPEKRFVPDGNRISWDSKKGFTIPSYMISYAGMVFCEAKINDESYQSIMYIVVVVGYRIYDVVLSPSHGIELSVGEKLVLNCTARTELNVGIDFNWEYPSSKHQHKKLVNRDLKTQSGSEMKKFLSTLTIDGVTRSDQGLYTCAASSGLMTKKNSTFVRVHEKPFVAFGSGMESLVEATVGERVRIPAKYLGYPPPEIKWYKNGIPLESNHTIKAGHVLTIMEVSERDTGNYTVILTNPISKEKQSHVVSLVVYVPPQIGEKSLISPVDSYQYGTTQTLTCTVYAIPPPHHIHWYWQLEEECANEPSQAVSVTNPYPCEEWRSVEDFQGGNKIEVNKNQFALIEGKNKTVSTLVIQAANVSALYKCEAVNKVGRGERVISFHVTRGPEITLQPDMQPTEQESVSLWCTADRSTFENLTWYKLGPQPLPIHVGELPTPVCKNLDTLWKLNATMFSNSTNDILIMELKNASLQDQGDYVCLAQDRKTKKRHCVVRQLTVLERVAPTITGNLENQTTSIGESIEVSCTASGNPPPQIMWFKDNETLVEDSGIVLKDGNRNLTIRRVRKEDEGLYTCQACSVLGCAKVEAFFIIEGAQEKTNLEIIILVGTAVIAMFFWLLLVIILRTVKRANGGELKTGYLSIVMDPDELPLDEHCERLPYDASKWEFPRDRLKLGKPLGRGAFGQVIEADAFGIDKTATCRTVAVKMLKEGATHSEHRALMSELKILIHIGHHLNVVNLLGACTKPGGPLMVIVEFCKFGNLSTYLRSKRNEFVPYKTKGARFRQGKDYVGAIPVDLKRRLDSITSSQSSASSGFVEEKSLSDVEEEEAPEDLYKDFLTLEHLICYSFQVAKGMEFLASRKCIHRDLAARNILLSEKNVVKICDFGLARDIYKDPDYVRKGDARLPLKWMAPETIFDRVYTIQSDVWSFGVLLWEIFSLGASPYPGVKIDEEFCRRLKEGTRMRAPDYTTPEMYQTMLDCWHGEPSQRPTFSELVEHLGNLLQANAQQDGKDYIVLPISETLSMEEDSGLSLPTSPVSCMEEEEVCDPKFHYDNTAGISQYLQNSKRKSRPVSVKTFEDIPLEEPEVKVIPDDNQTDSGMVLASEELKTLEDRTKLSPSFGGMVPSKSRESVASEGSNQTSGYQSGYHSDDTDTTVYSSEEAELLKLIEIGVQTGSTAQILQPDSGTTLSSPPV
Proto-oncogene tyrosine-protein kinase Src, sequence (P12931 2-536 limits assumed): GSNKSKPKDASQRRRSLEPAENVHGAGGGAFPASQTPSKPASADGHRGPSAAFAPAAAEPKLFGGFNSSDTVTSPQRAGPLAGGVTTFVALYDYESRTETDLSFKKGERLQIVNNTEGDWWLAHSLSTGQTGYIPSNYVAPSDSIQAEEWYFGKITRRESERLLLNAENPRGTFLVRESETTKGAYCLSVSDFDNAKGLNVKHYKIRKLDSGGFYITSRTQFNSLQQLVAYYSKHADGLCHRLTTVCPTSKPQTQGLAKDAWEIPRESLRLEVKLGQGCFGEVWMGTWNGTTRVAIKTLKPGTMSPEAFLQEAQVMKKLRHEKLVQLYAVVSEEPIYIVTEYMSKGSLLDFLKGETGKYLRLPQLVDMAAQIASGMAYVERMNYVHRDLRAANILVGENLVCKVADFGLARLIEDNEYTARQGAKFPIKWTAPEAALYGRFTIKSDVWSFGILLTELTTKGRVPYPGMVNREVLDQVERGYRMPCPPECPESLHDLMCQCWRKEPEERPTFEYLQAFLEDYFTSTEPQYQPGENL

As for `N#C/C(=C\c1cccc(-c2cccc3[nH]ncc23)c1)C(N)=O`, the IC50 in experiment [1] was more than 10000 nM; in [2], 2410 nM; in [3], 2050 nM; in experiment [4] it was 1670 nM; in [5], 6930 nM.
With `C=CC(=O)Nc1ccc2ncn(-c3cncc(Nc4ccccc4)n3)c2c1`, the IC50 in [6] was determined as 300 nM; in [7], 660 nM; in experiment [8], 550 nM; in [9] it was 640 nM; in experiment [10], 1000 nM; in experiment [11], 980 nM. Besides, the IC50 in [12] was 20 nM; in experiment [13], 550 nM.
On to `C=CC(=O)Nc1nc2cnc3[nH]ccc3c2n1C`, for which the IC50 in [14] came to 7400 nM; in experiment [6] it was 2 nM; in experiment [15], 5600 nM; in experiment [9] it was 1250 nM; in experiment [16], 3100 nM; in experiment [17], 7800 nM. In addition, the IC50 in experiment [12] worked out at 3 nM; in [18], 9400 nM; in experiment [19] it was 7100 nM.

A word on the IC50: it is the concentration that inhibits the measured activity by half. A high value points to weaker potency in that assay.
